Consider 4 compounds from patent US20260015350A1, “AZAQUINAZOLINE PAN-KRAS INHIBITORS” (Mirati Therapeutics, Inc., priority 2022, published 2026).

Molecules are shown by their SMILES. Some results are limits rather than exact numbers.

The test system of assay [1] is KRas-mediated phosphorylation of ERK in H2009 cells. Description: Inhibition of KRas-mediated phosphorylation of ERK (Cisbio HTRF pERK), H2009 cells. The settings on record: Homo sapiens, NCI-H2009. The assay is classed as cell-based. On the procedure:
Inhibition of KRas Phosphorylation of ERK (HTRF) by Exemplary Compounds of Formula (I)
Cisbio HTRF Advanced PERK Assay Catalog #64AERPEH
1. To harvest cells from flask using 0.05% Trypsin/EDTA solution. Add 10 mL of media to stop trypsinizing. Pipette the cells into a conical bottom 50 mL centrifuge tube and centrifuge 5 min×1000 rpm.
2. Re-suspend the cell pellet in media, take a cell count, and then adjust the cell density using fresh media.
3. Seed 6,000 cells into cell culture plate with 50 μL media. […]
4. Incubate cell plate overnight in a 37° C., 5% CO2 incubator.
1. Use Tecan to complete the compound addition. Compounds start from 10 uM top, 3-fold dilution, and 10 doses. The final DMSO concentration is 0.8%. Dispensed 0.2 uM Trametinib as Min control.
2. Incubate cell plate for 3 hrs in the incubator.
Detection with Cisbio pERK HTRF Kit
1. Dilute 1 volume of 4× lysis buffer with 3 volumes of deionized water. Then, add 100× the blocking reagent. Keep lysis buffer on the ice.
2. At the end of the compound treatment, flick-off the media.
3. Add 35 μL of lysis buffer per well using a Multidrop Combi. Then place on a plate agitator shaking at 300 rpm at 4° C. for 40 mins.
4. Make up the HTRF antibody buffer. For each assay plate, mix 50 μL of d2-conjugate antibody with 950 μL of detection buffer. Similarly, mix 50 μL of Cryptate antibody with 950 μL of detection buffer. Then mix the two diluted antibodies together.
5. Dispense 3.4 μL the antibody buffer to wells of an empty assay plate. Seal the plate and centrifuge plate 30 sec×1000 rpm.
6. At the end of the 4° C. lysis, centrifuge the lysate plates 3 mins×1500 rpm.
7. Use the Bravo to transfer 13.6 μL of lysate from cell culture plate to assay plate. Then incubate assay plate for 2 hrs at room temperature.
8. At the end of incubation, read plate on the Envision after centrifuging plate 30 sec×1000 rpm.
Background: TR-FRET usually uses a lanthanide donor and a delayed reading to cut background.

The subject of assay [2] is KRas-mediated phosphorylation of ERK in AsPC-1 cells. In words: Inhibition of KRas-mediated phosphorylation of ERK (Cisbio HTRF pERK), AsPC-1 cells. The assay is classed as cell-based. The settings on record: Homo sapiens, ASPC1, AsPC-1 cells; HTRF pERK. Put shortly:
(§1)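 Cells were seeded at 6,000 per well and treated for 3 hrs with compound in a 10-dose, 3-fold series from 10 uM (0.8% final DMSO), with 0.2 uM Trametinib as Min control. Lysates made at 4° C over 40 mins were incubated 2 hrs at room temperature with d2- and Cryptate-labelled antibodies, then read by HTRF.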

Assay [3] concerns the target T1, KRas^G12C (Homo sapiens, UniProt P01116, G12C).
T1 construct: Biotinylated KRas (corresponding to amino acids 1-169, produced at Accelegan Inc.); biotin (biotinylated); purchased Accelegan Inc
In words: KRas binding assay (TR-FRET tracer displacement), KRas G12C. Particulars: TR-FRET tracer displacement, KRas G12C.

Assay [4] has as its system KRas-mediated phosphorylation of ERK in H727 cells. Description: Inhibition of KRas-mediated phosphorylation of ERK (Cisbio HTRF pERK), H727 cells. In kind it is cell-based. The settings on record: Homo sapiens, NCI-H727, H727 cells; HTRF pERK. In short, it runs like this:
as §1

In assay [5] the test system is KRas-mediated phosphorylation of ERK in MKN1 cells. In words: Inhibition of KRas-mediated phosphorylation of ERK (Cisbio HTRF pERK), MKN1 cells. Particulars: Homo sapiens, MKN-1. In kind it is cell-based. In short, it runs like this:
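Seeding density was 6,000 cells/well; medium RPMI, 10% FBS. Read-out by homogeneous time-resolved fluorescence (pERK) after 4 hours covered at room temperature.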

Assay [6] concerns KRas-mediated phosphorylation of ERK in H358 cells. In words: Inhibition of KRas-mediated phosphorylation of ERK (Cisbio HTRF pERK), H358 cells. In kind it is cell-based. The settings on record: Homo sapiens, NCI-H358, HTRF pERK. Put shortly: as §1
The target of assay [7] is T2, KRas^G12V (Homo sapiens, UniProt P01116, G12V).
T2 construct: Biotinylated KRas (corresponding to amino acids 1-169, produced at Accelegan Inc.); biotin (biotinylated); purchased Accelegan Inc
T2 sequence (P01116 1-169 isoform P01116-2 G12V): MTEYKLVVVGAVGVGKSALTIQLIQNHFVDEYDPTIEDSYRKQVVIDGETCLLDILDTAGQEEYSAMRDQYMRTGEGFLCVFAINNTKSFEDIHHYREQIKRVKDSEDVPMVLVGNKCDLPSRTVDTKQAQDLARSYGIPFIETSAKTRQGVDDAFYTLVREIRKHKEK
Description: KRas binding assay (TR-FRET tracer displacement), KRas G12V.

The target in assay [8] is T3, KRas^G12D (Homo sapiens, UniProt P01116, G12D).
T3 construct: Biotinylated KRas (corresponding to amino acids 1-169, produced at Accelegan Inc.); biotin (biotinylated); purchased Accelegan Inc
T3 sequence (P01116 1-169 isoform P01116-2 G12D): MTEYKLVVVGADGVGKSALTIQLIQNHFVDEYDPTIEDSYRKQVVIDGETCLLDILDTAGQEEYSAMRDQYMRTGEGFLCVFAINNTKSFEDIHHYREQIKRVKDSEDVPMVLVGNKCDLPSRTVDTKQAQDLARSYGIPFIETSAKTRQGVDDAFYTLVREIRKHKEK
Description: KRas binding assay (TR-FRET tracer displacement), KRas G12D.

The target of assay [9] is T4, KRas^WT (Homo sapiens, UniProt P01116).
T4 construct: Biotinylated KRas (corresponding to amino acids 1-169, produced at Accelegan Inc.); biotin (biotinylated); purchased Accelegan Inc
T4 sequence (P01116 1-169 isoform P01116-2): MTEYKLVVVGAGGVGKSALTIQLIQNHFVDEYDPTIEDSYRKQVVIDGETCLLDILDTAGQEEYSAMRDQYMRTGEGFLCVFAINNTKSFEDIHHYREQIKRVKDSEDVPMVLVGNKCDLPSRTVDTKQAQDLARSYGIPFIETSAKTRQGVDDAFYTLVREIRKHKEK
Description: KRas binding assay (TR-FRET tracer displacement), KRas WT. The settings on record: TR-FRET tracer displacement, KRas WT.

Assay [10] deals with KRas-mediated phosphorylation of ERK in H460 cells. In words: Inhibition of KRas-mediated phosphorylation of ERK (Cisbio HTRF pERK), H460 cells. The assay is classed as cell-based. Particulars: Homo sapiens, NCI-H460, HTRF pERK. Put shortly:
as §1

Assay [11] deals with KRas-mediated phosphorylation of ERK in HCT116 cells. Description: Inhibition of KRas-mediated phosphorylation of ERK (Cisbio HTRF pERK), HCT116 cells. The settings on record: Homo sapiens, HCT-116, HTRF pERK. The assay is classed as cell-based. Put shortly:
(§2)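 HTRF readout of phospho-ERK in cell lysates after 3 hrs of compound exposure. Dosing: 10 uM top, 3-fold steps, 10 doses, final DMSO 0.8%. Min control: 0.2 uM Trametinib. Lysis ran 40 mins at 4° C, and antibody detection 2 hrs at room temperature.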

The test system of assay [12] is KRas-mediated phosphorylation of ERK in A549 cells. Description: Inhibition of KRas-mediated phosphorylation of ERK (Cisbio HTRF pERK), A549 cells. Particulars: Homo sapiens, HTRF pERK. The assay is classed as cell-based. Put shortly: as §2
Assay [13] concerns the target T5, KRas^G12S (Homo sapiens, UniProt P01116, G12S).
T5 construct: Biotinylated KRas (corresponding to amino acids 1-169, produced at Accelegan Inc.); biotin (biotinylated); purchased Accelegan Inc
Description: KRas binding assay (TR-FRET tracer displacement), KRas G12S. Particulars: TR-FRET tracer displacement, KRas G12S.

T1 sequence (P01116 1-169 isoform P01116-2 G12C): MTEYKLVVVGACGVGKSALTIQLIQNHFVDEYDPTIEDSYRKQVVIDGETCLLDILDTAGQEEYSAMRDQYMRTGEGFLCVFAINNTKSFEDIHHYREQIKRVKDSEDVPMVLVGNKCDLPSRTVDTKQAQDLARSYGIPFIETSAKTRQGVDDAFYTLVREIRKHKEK
T5 sequence (P01116 1-169 isoform P01116-2 G12S): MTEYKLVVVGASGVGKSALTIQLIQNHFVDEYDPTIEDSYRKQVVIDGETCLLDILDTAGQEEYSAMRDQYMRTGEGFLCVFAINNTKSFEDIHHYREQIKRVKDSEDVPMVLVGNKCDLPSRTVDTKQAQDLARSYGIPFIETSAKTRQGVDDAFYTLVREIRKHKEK

As usually defined, the IC50 is the point on the concentration scale where inhibition reaches its midpoint. In the case of `C[C@@H]1C[C@@H]1c1c(Cl)cc(O)cc1-c1ncc2c(N3CC4CCC(C3)N4)nc(OC[C@@]34CCCN3C/C(=C\F)C4)nc2c1F` [Example 806, 3-(4-(3,8-diazabicyclo[3.2.1]octan-3-yl)-8-fluoro-2-(((S,Z)-2-(fluoromethylene)tetrahydro-1H-pyrrolizin-7a(5H)-yl)methoxy)pyrido[4,3-d]pyrimidin-7-yl)-5-chloro-4-(cis-2-methylcyclopropyl)phenol], the IC50 in assay [1] was 29 nM; in assay [2], 2 nM; in assay [3] it was 3 nM; in [4], 364 nM; in assay [5], 19 nM; in [6] it was 43 nM. In addition, the IC50 in assay [7] was 4 nM; in assay [8] it was below 2 nM; in assay [9] it was 4 nM; in [10], 107 nM; in assay [11], 129 nM; in assay [12], 139 nM. For the same compound, in assay [13], the IC50 stood at 2 nM.
For `C/C=C1\CN2CCCC2(COc2nc(N3C[C@@H]4C[C@H](C3)[C@H](O)C4)c3cnc(-c4cc(O)cc5ccc(F)c(CC)c45)c(F)c3n2)C1` (stereo partly drawn) [Example 938, (1R,5R,6R)-3-(7-(8-ethyl-7-fluoro-3-hydroxynaphthalen-1-yl)-2-(((Z)-2-ethylidenetetrahydro-1H-pyrrolizin-7a(5H)-yl)methoxy)-8-fluoropyrido[4,3-d]pyrimidin-4-yl)-3-azabicyclo[3.2.1]octan-6-ol], the IC50 in assay [1] was 1 nM; in assay [2], 9 nM; in assay [3], below 2 nM; in assay [4], 4 nM; in assay [5] it was 0.2 nM; in [6], 1 nM. In addition, the IC50 in [7] is below 2 nM; in assay [8] it was below 2 nM; in assay [9] it was below 2 nM; in assay [10] it was 4 nM; in assay [11] it was 7 nM; in assay [12], 3 nM. The compound further had an IC50 in assay [13] below 2 nM.
In the case of `C=C1CN2CCCC2(COc2nc(N3CCCC4(CCO4)C3)c3cnc(-c4cc(O)cc5ccc(F)c(CC)c45)c(F)c3n2)C1` (stereo not drawn) [Example 941, 5-ethyl-6-fluoro-4-(8-fluoro-2-((2-methylenetetrahydro-1H-pyrrolizin-7a(5H)-yl)methoxy)-4-(1-oxa-6-azaspiro[3.5]nonan-6-yl)pyrido[4,3-d]pyrimidin-7-yl)naphthalen-2-ol], the IC50 in assay [1] is 1 nM; in assay [2], 1 nM; in [3] it was below 2 nM; in [4] it was 2 nM; in assay [5] it was 0.1 nM; in assay [6], 1 nM. Moreover, the IC50 in assay [7] is below 2 nM; in assay [8] it was below 2 nM; in assay [9] it was below 2 nM; in assay [10], 2 nM; in assay [11] it was 3 nM; in assay [12] it was 2 nM. Also, in [13], the IC50 was below 2 nM.
Consider `C[C@@H]1C[C@@H]1c1c(Cl)cc(O)cc1-c1ncc2c(N3CCC[C@@](C)(O)C3)nc(OC[C@@]34CCCN3C/C(=C\F)C4)nc2c1F` [Example 944, (R)-1-(7-(3-chloro-5-hydroxy-2-((1S,2R)-2-methylcyclopropyl)phenyl)-8-fluoro-2-(((S,Z)-2-(fluoromethylene)tetrahydro-1H-pyrrolizin-7a(5H)-yl)methoxy)pyrido[4,3-d]pyrimidin-4-yl)-3-methylpiperidin-3-ol], for which the IC50 is 1 nM in [1]; 2 nM in assay [2]; below 2 nM in assay [3]; 6 nM in assay [4]; 1 nM in assay [6]; below 2 nM in [7]. Besides, the 50% inhibitory concentration (IC50) in assay [8] is below 2 nM; in assay [9], below 2 nM; in [10] it was 3 nM; in assay [11], 6 nM; in assay [12], 6 nM; in assay [13], below 2 nM.
